Data as given in a melting point compilation (Tetko et al.; mined from patent text by program, amines drawn as free bases though some values may be those of a salt).

SMILES	melting point
CCCCCCCCOc1ccc(-c2cnc(C(=O)O)c(C(=O)O)n2)cc1	163 °C
CCOC(=O)c1c(C)cc2cnc(-c3ccccc3F)nc2c1C	98 to 100 °C
CC(=O)Nc1ccc(C#N)cc1I	176 to 181 °C
CC(C(=O)NCC(=O)OCc1ccccc1)N1CCN(CC(=O)OC(C)(C)C)CCN(CC(=O)OC(C)(C)C)CCN(CC(=O)OC(C)(C)C)CC1 (centres undefined)	116 to 117 °C
COc1ccc(C(=O)NC2N=C(c3ccccc3F)c3ccccc3NC2=O)cc1OC (racemic)	206 to 208 °C
O=C(OCC1CC1)c1ncn2c1[C@@H]1CCCN1C(=O)c1cc(Cl)ccc1-2	146 to 148 °C
Cc1csc(C(O)(c2nccs2)C(F)(F)F)n1 (centres undefined)	89 to 90 °C
COc1ccc2c(c1)c1c(n2C(=O)c2ccc(F)cc2)CCC(C(=O)O)C1 (centres undefined)	258 to 260 °C
CN(C)C1CCN(C(=O)c2ccc(-c3[nH]nc4c3C(=O)c3c(NC(=O)NN5CCOCC5)cccc3-4)s2)CC1	185 to 186 °C
Oc1c(-c2ccccc2)cc(Cn2c(=S)sc3ccccc32)cc1-c1ccccc1	145 to 146 °C
COc1ccc(-c2c(C3CCN(C)CC3)[nH]c(=O)c3ccccc23)cc1	209 to 211 °C
Cc1nn(CC(F)(F)F)c(C(N)=O)c1[N+](=O)[O-]	205 to 207 °C
Nc1ccccc1NC(=O)c1cc2cc(OCCO)ccc2[nH]1	222 to 223 °C
COCCNC(=O)c1cccc(-c2cccc3c2nc(Oc2cccc(C(F)(F)F)c2)n3C)c1	146 to 147 °C
COC(=O)c1cc(C(=O)OC)c(Br)cn1	102 to 104 °C
Cc1oc(-c2ccccc2)nc1COc1ccc(Cn2cc(C(=O)O)c(-c3cccs3)n2)cc1	204 to 205 °C
Cn1ncnc1COc1nn2c(-c3ccccc3F)nncc2c1-c1c(F)cccc1F	196 °C
COc1ccc(CCNC(=O)C(=O)NO)cc1OC1CCCC1	136 to 137 °C
CCCCc1cc2ccccc2c(Oc2ccc(/C=C/C(=O)O)cc2)c1-c1ccc(F)cc1	169 to 170 °C
COc1cccc(C=C2OC(=O)c3ccccc32)c1	119 to 123 °C
CCOc1ccc(-c2c(S(C)(=O)=O)ccc(C(=O)c3cnn(C(C)(C)C)c3O)c2C)cc1	110 °C
CNC(=C[N+](=O)[O-])NCCSCc1ncccc1OC	146 to 147 °C
CCOc1c(C2=C(C(C)(C)C)C(C)(C)CO2)oc2ccc(OC)cc12	60 to 61 °C
CC(C)Oc1ccc(-n2c(C(=O)NC(C)(C)C(=O)O)c(Cl)c3cc(Oc4ccc(C(F)(F)F)cc4)ccc32)cc1	187 to 188 °C

SMILES	melting point
CS(=O)(=O)c1ccc(OC2SCC(O)C(O)C2O)cc1 (centres undefined)	180 °C
CCn1cc(C(=O)O)c(=O)c2cc(F)c(S(=O)(=O)CC)nc21	249 to 252 °C
CC(N)Cn1ncc2ccc3c(c21)C(N)C(O)CO3 (centres undefined)	84 to 88 °C
COC(=O)[C@@H]1C[C@H](OC(=O)c2cc3ccccc3o2)C(=O)[C@H]2[C@@]1(C)CC[C@H]1C(=O)O[C@H](c3ccoc3)C[C@]21C	226 to 227 °C
Cc1nc(-c2ccccc2)cc(-c2cccc(C=O)c2)c1C(=O)NCCN1CCOCC1	122 to 125 °C
O=C(CCc1nc(-c2ccccn2)no1)NC1CCN(Cc2ccc(Cl)c(Cl)c2)CC1	155 °C
COc1ccc(Br)c(C=C(C#N)C(=O)O)c1OC	130 to 132 °C
Cc1ccnc2ccc(Cc3cnc(N)nc3N)cc12	262 to 268 °C
CC(C)(C)OC(=O)[C@H](COC(=O)N(N)c1ccc(CC(=O)O)cc1)C(=O)OC(c1ccccc1)c1ccccc1	165 to 166 °C
Cc1cc2c(cc1C(=O)c1ccc(C(=O)O)cc1)C1(C)C3(C)CCC(C3)C1(C)O2 (centres undefined)	238 to 239 °C
CC(=O)c1ccc(-n2c(-c3sc(NC(=O)c4ccccc4)nc3-c3ccccc3)nc3ccccc3c2=O)cc1	250 to 252 °C
Cn1c2c(c3ccccc31)Cc1ccccc1-2	152 °C
Cc1ccc(Cl)c(Nc2ccccc2-c2n[nH]c(=S)s2)c1Cl	250 to 252 °C
CS(=O)(=O)Nc1ccc(CCCOCCCCCCNCC(O)c2ccc(O)c(CO)c2)cc1 (centres undefined)	48 to 50 °C
CS(=O)(=O)c1ccc(-c2[nH]c3ccc(Cl)cc3c2-c2ccccc2Cl)cc1	300 to 302 °C
O=C(O)C=CC1(Cc2ccccc2)C=CC=C(c2ccccc2)C1 (centres undefined)	165 to 174 °C
CSCc1nc(C(C)(C)O)c(C(=O)O)n1Cc1ccc(-c2ccccc2-c2nnn[nH]2)cc1	172 to 181 °C
CN1C(=O)C(F)N=C(c2ccccc2Cl)c2cc(Cl)ccc21 (centres undefined)	204 to 205 °C
CCOC(=O)C1CCc2cc(OC)ccc2C1=O (centres undefined)	58 to 60 °C
CCSc1cccc(OC(F)(F)F)c1S(N)(=O)=O	146 °C
CCCOc1ccc(-c2ccc3c(c2)C=C(C(=O)OC)CCS3(=O)=O)cc1	153 to 155 °C
COc1nc(C(=O)O)ccc1C#N	235 to 237 °C
C=CCSc1nc2ccc(OCC)cc2[nH]1	147 to 149 °C
CC(=O)c1cccnc1CN1C(=O)C(NC(=O)Nc2cccc(C)c2)N=C(c2ccccc2F)c2ccccc21 (racemic)	218 to 222 °C

SMILES	melting point
Cc1cc(Oc2cccc(C(F)(F)F)c2)nn1C(=O)Nc1ccc(F)c(F)c1F	102 to 104 °C
COCc1c(-c2cc(C)no2)ncc2[nH]c3ccc(OCc4ccccc4)cc3c12	202 to 203 °C
CN(C)c1ccc2[nH]c(-c3cc(NC(=O)c4cccc(OCCCCCCC(=O)NO)c4)ccc3Cl)nc2c1	140 to 142 °C
CC(=O)N[C@@H](CSC(=O)C(C)(C)C)C(=O)NCCSC(=O)C(C)C	103 to 104 °C
CCc1c(Sc2cc(Cl)cc(Cl)c2)c(CC#N)nn1CCO	84 to 85 °C
O=C1c2nccc(Br)c2C(=O)c2c(-c3ccccc3NC(=O)C(F)(F)F)ccnc21	145 °C
COc1ccccc1N1CCN(C(=O)[C@@H](Cc2cccnc2)NC(=O)OC(C)(C)C)CC1	142 °C
Cc1nc2c(N)nc3ccccc3c2n1CC(C)(C)CC1(C)OCCO1	209 to 211 °C
C/C=C/CC(=O)N[C@H]1CC[C@H](CCN2CCN(c3nccc4c3CCO4)CC2)CC1	176 °C
Cc1ccc(C(=O)NCN2CCN(c3ncccc3C#N)CC2)cc1	134 to 136 °C
Cc1cc(C)nc(-c2cccc(-c3ccccc3)n2)n1	117 °C
CCCC(C)(CO)c1cc(Cl)nnc1Cl (centres undefined)	99 to 100 °C
CCCS(=O)(=O)c1sc(C(N)=O)c2c1-c1c(cnn1CC(F)(F)F)CC2	141 to 142 °C
O=C(c1cn(Cc2ccccc2Cl)nn1)N1CCCCC1	141 to 142 °C
CCCCNC(=O)NS(=O)(=O)c1c(Cl)cccc1-c1ccccc1	184 to 186 °C
CCC(Cl)Cc1sc(O)nc1C (centres undefined)	84 to 85 °C
COCOc1cc(OC)c(OC)cc1-c1c(C(=O)OC)nnc(C(=O)OC)c1-c1ccc(OC)c(OC)c1	131 to 133 °C
Cn1nncc1-c1cc(C=O)c2occc2c1	180 to 182 °C
O=C(Nc1cccc([N+](=O)[O-])c1)NC1C(=O)N(CC23CC4CC(CC(C4)C2)C3)c2ccccc2N(c2ccccc2)C1=O (centres undefined)	213 to 215 °C
CCCCCCNc1ccc(Oc2ccc3nc(COc4ccc(CC5SC(=O)NC5=O)cc4)n(C)c3c2)cc1 (centres undefined)	177 to 179 °C
COc1ccc2c3c([nH]c2c1)C(=S)C(CC1CCN(Cc2ccccc2)CC1)C3 (centres undefined)	180 to 181 °C
COc1ccc2[nH]cc(SCCN=C3CCCN3C)c2c1	154 to 157 °C
CCCCCCC(=O)Oc1cc(-c2nc3ccccc3[nH]c2=O)cc([N+](=O)[O-])c1OC(=O)CCCCCC	186 to 188 °C
Cc1ccc2c([nH]c3c(C(=O)N4CCOCC4)cccc32)c1C	183 °C

SMILES	melting point
COc1cn(-c2ccc(N3CCN(C(C)(C)C)C3=O)cc2F)nc(-c2ccnn2-c2ccccc2)c1=O	238 to 239 °C
Cc1cc(Nc2cccc(C(F)(F)F)c2)nc(-n2nc(C)cc2C)n1	130 to 134 °C
CC12CCC3(CC1CCC1C2CCC2(C)C1CC(O)C2NC=O)OCCO3 (centres undefined)	277 to 280 °C
CCOc1cc2oc(=O)c3c(c2cc1OCC)CCN(CCN1CCCCC1)C3	144 to 146 °C
COc1nccc2c(N)cccc12	53 to 57 °C
O=Cc1cc2c(ccc3c4ccccc4ccc23)o1	169 °C
O=C(Nc1nnn[nH]1)c1c(C(F)(F)F)nc2c(C(F)(F)F)cccc2c1O	> 260 °C
FC(F)(F)c1ccc(NC(=S)Nc2cc(C(F)(F)F)nc(C(F)(F)F)c2)cc1	125 to 132 °C
N#Cc1c(N2CCCCC2)cc(-c2cccc3ccccc23)c2c1Cc1ccccc1-2	148 to 149 °C
CCN1C(=O)C2CCc3c(Br)ccc(OC)c3C2C1=O (centres undefined)	170 to 174 °C
O=C(CBr)Nc1ccc(C(=O)O)cc1	241 to 243 °C
CSC(=C[N+](=O)[O-])Nc1ccc(C#N)cc1	188 to 190 °C
FC(F)c1nc2ccccc2n1-c1nc(Nc2ncccn2)nc(N2CCOCC2)n1	261 to 263 °C
COc1ccc(-c2cc(=Nc3c(C)cc(C)cc3C)n(C)c(N(C)Cc3ccccc3)n2)cc1OC	96 to 98 °C
Cc1ccc(C(=O)Nc2c(NC(=O)CN3CCN(C)CC3)ccc3c2C(=O)c2ccccc2C3=O)cc1	214 to 215 °C
C[C@@H](N(C(=O)CN)C(=O)c1ccc(C(F)(F)F)cc1)[C@](O)(Cn1cncn1)c1ccc(F)cc1F (relative stereo)	147 to 148 °C
CCOC(=O)c1cc2ccnc(Cl)c2[nH]1	152 to 157 °C
CC(C)C1=C(C#N)C(c2cccc3nocc23)c2c[nH]nc2N1 (centres undefined)	245 °C
Cc1ccccc1C1c2ccccc2S(=O)(=O)N1C (single isomer, unassigned; (+))	152 °C
CC(=O)C(=O)NCc1nnc(C)n1-c1cc(Cl)cc(C(=O)c2ccccc2Cl)c1	178 to 180 °C
COC(=O)c1cc(N)c(C)c(-n2cccc2)c1	112 °C
Cc1cccc(NC(=O)NCC(=O)N(CC(=O)OC(C)(C)C)c2ccccc2C(=O)N2CCCc3ccccc32)c1	160 °C
